Measured values reported in patent publication US10245275B2 (ViiV HEALTHCARE UK (NO.4) LIMITED, priority 2014, dated 2019).
Read-outs that look alike come from different tables or passages of the source.

What was measured:
[1] = test system: WT (wild-type HIV virus; recombinant NL4-3 virus); assay: microbe, parasite or virus in culture; type: cell-based, HIV-1
Experimental: (§1) MT-2 cells and 293T cells were obtained from the NIH AIDS Research and Reference Reagent Program. MT-2 cells were propagated in RPMI 1640 media supplemented with 10% heat-inactivated fetal bovine serum, […]. The 293T cells were propagated in DMEM media supplemented with 10% heat-inactivated fetal bovine serum (FBS), 100 units/mL penicillin G and 100 μg/mL streptomycin. […] A recombinant NL4-3 virus, in which a section of the nef gene from NL4-3 was replaced with the Renilla luciferase gene, was used as a reference virus. In addition, residue Gag P373 was converted to P373S. […] Transfections were performed in 293T cells using LipofectAMINE PLUS from Invitrogen (Carlsbad, Calif.), according to manufacturer's instruction. The virus was titered in MT-2 cells using luciferase enzyme activity as a marker. Luciferase was quantitated using the Dual Luciferase kit from Promega (Madison, Wis.), with modifications to the manufacturer's protocol. The diluted Passive Lysis solution was pre-mixed with the re-suspended Luciferase Assay Reagent and the re-suspended Stop & Glo Substrate (2:1:1 ratio). Fifty (50) μL of the mixture was added to each aspirated well on assay plates and luciferase activity was measured immediately on a Wallac TriLux (Perkin-Elmer). Antiviral activities of inhibitors toward the recombinant virus were quantified by measuring luciferase activity in cells infected for 4-5 days with NLRluc recombinants in the presence serial dilutions of the inhibitor.
WT refers to wild-type HIV virus. […]

[2] = test system: HIV-1 NL4-3 gag A364V virus; assay: microbe, parasite or virus in culture; type: cell-based
Experimental: as §1
Both recombinant viruses were used as described above in the HIV cell culture assay for the NL4-3 virus.

[3] = Human immunodeficiency virus 1, NL43, MT2, read-out: WT (EC50, uM), Table 1 regular screen, MT-2 cells, luciferase readout
[4] = Human immunodeficiency virus 1, NL43, MT2, read-out: A364V (EC50, uM), Table 1 regular screen, MT-2 cells, luciferase readout
[5] = Human immunodeficiency virus 1, NL43, MT2, read-out: WT (EC50, uM), Table 1 regular screen, class symbol
[6] = Human immunodeficiency virus 1, NL43, MT2, read-out: A364V (EC50, uM), Table 1 regular screen, class symbol

SMILES	EC50 [1, 3]	EC50 [2, 4]	EC50 [1, 5]	EC50 [2, 6]
C=C(C)[C@@H]1CC[C@]2(NC(CN)C(F)(F)F)CC[C@]3(C)[C@H](CC[C@@H]4[C@@]5(C)CC=C(C6=CC[C@](CF)(C(=O)O)CC6)C(C)(C)[C@@H]5CC[C@]43C)[C@@H]12 (single isomer, unassigned) [Example 39]	0.0473 µM	2.03 µM		
C=C(C)[C@@H]1CC[C@]2(NCCN3CCN(C(C)=O)C(C)(C)C3=O)CC[C@]3(C)[C@H](CC[C@@H]4[C@@]5(C)CC=C(C6=CC[C@](CF)(C(=O)O)CC6)C(C)(C)[C@@H]5CC[C@]43C)[C@@H]12 [Example 2-27, (S)-4-((1R,3aS,5aR,5bR,7aR,11aS,11bR,13aR,13bR)-3a-((2-(4-acetyl-3,3-dimethyl-2-oxopiperazin-1-yl)ethyl)amino)-5a,5b, 8,8,11a-pentamethyl-1-(prop-1-en-2-yl)-2,3,3a,4,5,5a,5b,6,7,7a,8,11,11a,11b,12,13,13a,13b-octadecahydro-1H-cyclopenta[a]chrysen-9-yl)-1-(fluoromethyl)cyclohex-3-enecarboxylic acid]	0.00577 µM	0.0201 µM		
C=C(C)[C@@H]1CC[C@]2(NCCN3CCOC3=O)CC[C@]3(C)[C@H](CC[C@@H]4[C@@]5(C)CC=C(C6=CC[C@](CF)(C(=O)O)CC6)C(C)(C)[C@@H]5CC[C@]43C)[C@@H]12 [Example 2-24, (S)-1-(fluoromethyl)-4-((1R,3aS,5aR,5bR,7aR,11aS,11bR,13aR,13bR)-5a,5b,8,8,11a-pentamethyl-3a-((2-(2-oxooxazolidin-3-yl)ethyl)amino)-1-(prop-1-en-2-yl)-2,3,3a,4,5,5a,5b,6,7,7a,8,11,11a,11b,12,13,13a,13b-octadecahydro-1H-cyclopenta[a]chrysen-9-yl)cyclohex-3-enecarboxylic acid]	0.0053 µM	0.932 µM		
C=C(C)[C@@H]1CC[C@]2(CNCC(C)(C)N3CCS(=O)(=O)CC3)CC[C@]3(C)[C@H](CC[C@@H]4[C@@]5(C)CC=C(C6=CC[C@](CF)(C(=O)O)CC6)C(C)(C)[C@@H]5CC[C@]43C)[C@@H]12 [Example 10, (S)-4-((1R,3aS,5aR,5bR,7aR,11aS,11bR,13aR,13bR)-3a-(((2-(1,1-dioxidothiomorpholino)-2-methylpropyl)amino)methyl)-5a,5b, 8,8,11a-pentamethyl-1-(prop-1-en-2-yl)-2,3,3a,4,5,5a,5b,6,7,7a,8,11,11a,11b,12,13,13a,13b-octadecahydro-1H-cyclopenta[a]chrysen-9-yl)-1-(fluoromethyl)cyclohex-3-enecarboxylic acid]			< 0.05 µM	< 0.05 µM
C=C(C)[C@@H]1CC[C@]2(NCCC3(O)CCS(=O)(=O)CC3)CC[C@]3(C)[C@H](CC[C@@H]4[C@@]5(C)CC=C(C6=CC[C@](CF)(C(=O)O)CC6)C(C)(C)[C@@H]5CC[C@]43C)[C@@H]12 [Example 2-13, (S)-1-(fluoromethyl)-4-((1R,3aS,5aR,5bR,7aR,11aS,11bR,13aR,13bR)-3a-((2-(4-hydroxy-1,1-dioxidotetrahydro-2H-thiopyran-4-yl)ethyl)amino)-5a,5b,8,8,11a-pentamethyl-1-(prop-1-en-2-yl)-2,3,3a,4,5,5a,5b,6,7,7a,8,11,11a,11b,12,13,13a,13b-octadecahydro-1H-cyclopenta[a]chrysen-9-yl)cyclohex-3-enecarboxylic acid]			< 0.05 µM	> 0.05 µM
C=C(C)[C@@H]1CC[C@]2(NCC(=O)N3CCC(S(C)(=O)=O)C3)CC[C@]3(C)[C@H](CC[C@@H]4[C@@]5(C)CC=C(C6=CC[C@](CF)(C(=O)O)CC6)C(C)(C)[C@@H]5CC[C@]43C)[C@@H]12 (stereo partly drawn) [Example 36, (1S)-1-(fluoromethyl)-4-((1R,3aS,5aR,5bR,7aR,11aS,11bR,13aR,13bR)-5a,5b, 8,8,11a-pentamethyl-3a-((2-(3-(methylsulfonyl)pyrrolidin-1-yl)-2-oxoethyl)amino)-1-(prop-1-en-2-yl)-2,3,3a,4,5,5a,5b,6,7,7a,8,11,11a,11b,12,13,13a,13b-octadecahydro-1H-cyclopenta[a]chrysen-9-yl)cyclohex-3-enecarboxylic acid]			< 0.05 µM	> 0.05 µM
C=C(C)[C@@H]1CC[C@]2(NCCN3CCCC3=O)CC[C@]3(C)[C@H](CC[C@@H]4[C@@]5(C)CC=C(C6=CC[C@](CF)(C(=O)O)CC6)C(C)(C)[C@@H]5CC[C@]43C)[C@@H]12 [Example 20, (S)-1-(fluoromethyl)-4-((1R,3aS,5aR,5bR,7aR,11aS,11bR,13aR,13bR)-5a,5b, 8,8,11a-pentamethyl-3a-((2-(2-oxopyrrolidin-1-yl)ethyl)amino)-1-(prop-1-en-2-yl)-2,3,3a,4,5,5a,5b,6,7,7a,8,11,11a,11b,12,13,13a,13b-octadecahydro-1H-cyclopenta[a]chrysen-9-yl)cyclohex-3-enecarboxylic acid]	0.00253 µM	0.129 µM		
C=C(C)[C@@H]1CC[C@]2(NC(CN3CCS(=O)(=O)CC3)C(F)(F)F)CC[C@]3(C)[C@H](CC[C@@H]4[C@@]5(C)CC=C(C6=CC[C@](CF)(C(=O)O)CC6)C(C)(C)[C@@H]5CC[C@]43C)[C@@H]12 (single isomer, unassigned) [Example 42]			> 0.05 µM	> 0.05 µM
C=C(C)[C@@H]1CC[C@]2(NCC=C(C3CC3)C3CC3)CC[C@]3(C)[C@H](CC[C@@H]4[C@@]5(C)CC=C(C6=CC[C@](CF)(C(=O)O)CC6)C(C)(C)[C@@H]5CC[C@]43C)[C@@H]12 [Example 2-6, (S)-4-((1R,3aS,5aR,5bR,7aR,11aS,11bR,13aR,13bR)-3a-((3,3-dicyclopropylallyl)amino)-5a,5b,8,8,11a-pentamethyl-1-(prop-1-en-2-yl)-2,3,3a,4,5,5a,5b,6,7,7a,8,11,11a,11b,12,13,13a,13b-octadecahydro-1H-cyclopenta[a]chrysen-9-yl)-1-(fluoromethyl)cyclohex-3-enecarboxylic acid]	0.011 µM	3 µM		
C=C(C)[C@@H]1CC[C@]2(NCC[C@]3(O)CC[C@](C)(O)CC3)CC[C@]3(C)[C@H](CC[C@@H]4[C@@]5(C)CC=C(C6=CC[C@](CF)(C(=O)O)CC6)C(C)(C)[C@@H]5CC[C@]43C)[C@@H]12 [Example 2-16, (S)-4-((1R,3aS,5aR,5bR,7aR,11aS,11bR,13aR,13bR)-3a-((2-((trans)-1,4-dihydroxy-4-methylcyclohexyl)ethyl)amino)-5a,5b,8,8,11a-pentamethyl-1-(prop-1-en-2-yl)-2,3,3a,4,5,5a,5b,6,7,7a,8,11,11a,11b,12,13,13a,13b-octadecahydro-1H-cyclopenta[a]chrysen-9-yl)-1-(fluoromethyl)cyclohex-3-enecarboxylic acid]	0.0021 µM	0.0571 µM		
C=C(C)[C@@H]1CC[C@]2(NCCC3CCOCC3)CC[C@]3(C)[C@H](CC[C@@H]4[C@@]5(C)CC=C(C6=CC[C@](CF)(C(=O)O)CC6)C(C)(C)[C@@H]5CC[C@]43C)[C@@H]12 [Example 9, (S)-1-(fluoromethyl)-4-((1R,3aS,5aR,5bR,7aR,11aS,11bR,13aR,13bR)-5a,5b,8,8,11a-pentamethyl-1-(prop-1-en-2-yl)-3a-((2-(tetrahydro-2H-pyran-4-yl)ethyl)amino)-2,3,3a,4,5,5a,5b,6,7,7a,8,11,11a,11b,12,13,13a,13b-octadecahydro-1H-cyclopenta[a]chrysen-9-yl)cyclohex-3-enecarboxylic acid]			< 0.05 µM	> 0.05 µM
C=C(C)[C@@H]1CC[C@]2(NCCN3CCC(C(=O)O)(C(=O)O)CC3)CC[C@]3(C)[C@H](CC[C@@H]4[C@@]5(C)CC=C(C6=CC[C@@](CF)(C(=O)O)CC6)C(C)(C)[C@@H]5CC[C@]43C)[C@@H]12 [Example 16, 1-(2-(((1R,3aS,5aR,5bR,7aR,11aS,11bR,13aR,13bR)-9-((R)-4-carboxy-4-(fluoromethyl)cyclohex-1-en-1-yl)-5a,5b,8,8,11a-pentamethyl-1-(prop-1-en-2-yl)-2,3,3a,4,5,5a,5b,6,7,7a,8,11,11a,11b,12,13,13a,13b-octadecahydro-1H-cyclopenta[a]chrysen-3a-yl)amino)ethyl)piperidine-4,4-dicarboxylic acid]	0.43 µM	3 µM		
